Tests used:
Test in all cases: relative viability (nuclei count vs DMSO), 5 days (fraction); higher = more cells survive
Crenolanib + Foretinib = compound: CC1(COc2ccc3c(c2)ncn3-c2ccc3cccc(N4CCC(N)CC4)c3n2)COC1 [Crenolanib] + COc1cc2c(Oc3ccc(NC(=O)C4(C(=O)Nc5ccc(F)cc5)CC4)cc3F)ccnc2cc1OCCCN1CCOCC1 [Foretinib] (partner 0.25 µM)
In short: (§1)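 Nuclei were stained with Hoechst during a one-step fixation (final 0.05% Triton X-100, 1% formaldehyde, 1 ug/ml Hoechst) carried out 5 days after dosing, then counted on 4× images. The cells, lung cancer lines in 1536-well plates, had been dosed by pin tool the day after seeding with one drug alone or a fixed anchor-drug dose plus five library-drug doses (not always all listed) in √10 steps. Relative viability is the nuclei count in treated wells divided by that in vehicle wells, and each value is the median of duplicate plates.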

Crenolanib + Decitabine = compound: CC1(COc2ccc3c(c2)ncn3-c2ccc3cccc(N4CCC(N)CC4)c3n2)COC1 [Crenolanib] + Nc1ncn([C@H]2C[C@H](O)[C@@H](CO)O2)c(=O)n1 [Decitabine] (partner 2 µM)
In short: as §1

Tivantinib + Navitoclax = compound: O=C1NC(=O)[C@@H](c2cn3c4c(cccc24)CCC3)[C@@H]1c1c[nH]c2ccccc12 [Tivantinib] + CC1(C)CCC(c2ccc(Cl)cc2)=C(CN2CCN(c3ccc(C(=O)NS(=O)(=O)c4ccc(N[C@H](CCN5CCOCC5)CSc5ccccc5)c(S(=O)(=O)C(F)(F)F)c4)cc3)CC2)C1 [Navitoclax] (partner 0.5 µM)
In short: as §1

Tivantinib + Decitabine = compound: O=C1NC(=O)[C@@H](c2cn3c4c(cccc24)CCC3)[C@@H]1c1c[nH]c2ccccc12 [Tivantinib] + Nc1ncn([C@H]2C[C@H](O)[C@@H](CO)O2)c(=O)n1 [Decitabine] (partner 2 µM)
In short: as §1

Cell Line | relative viability (Crenolanib + Foretinib; first compound 0.01 µM) | relative viability (Crenolanib + Foretinib; first compound 0.03162 µM) | relative viability (Crenolanib + Foretinib; first compound 0.1 µM) | relative viability (Crenolanib + Foretinib; first compound 0.3162 µM) | relative viability (Crenolanib + Foretinib; first compound 1 µM) | relative viability (Crenolanib + Decitabine; first compound 0.01 µM) | relative viability (Crenolanib + Decitabine; first compound 0.03162 µM) | relative viability (Crenolanib + Decitabine; first compound 0.1 µM) | relative viability (Crenolanib + Decitabine; first compound 0.3162 µM) | relative viability (Crenolanib + Decitabine; first compound 1 µM) | relative viability (Tivantinib + Navitoclax; first compound 0.01 µM) | relative viability (Tivantinib + Navitoclax; first compound 0.03162 µM) | relative viability (Tivantinib + Navitoclax; first compound 0.1 µM) | relative viability (Tivantinib + Navitoclax; first compound 0.3162 µM) | relative viability (Tivantinib + Decitabine; first compound 0.01 µM) | relative viability (Tivantinib + Decitabine; first compound 0.03162 µM) | relative viability (Tivantinib + Decitabine; first compound 0.1 µM) | relative viability (Tivantinib + Decitabine; first compound 0.3162 µM)
201T | 1.19 | 1.1 | 1.03 | 1.12 | 1.06 | 0.863 | 0.839 | 0.822 | 0.884 | 0.843 | 1.12 | 1.17 | 1.17 | 1.18 | 0.829 | 0.861 | 0.839 | 0.81
A549 | 0.996 | 0.894 | 0.891 | 1.04 | 1.01 | 0.208 | 0.258 | 0.282 | 0.221 | 0.293 | 1.28 | 1.15 | 1.19 | 1.2 | 0.246 | 0.276 | 0.228 | 0.294
A-427 | 1.05 | 0.969 | 1.14 | 1.1 | 1.09 | 0.573 |  | 0.592 | 0.553 | 0.52 | 0.893 | 0.882 | 0.924 | 0.951 | 0.602 | 0.579 | 0.508 | 0.518
ABC-1 | 1.43 | 0.889 | 1.13 | 1.12 | 1.46 | 1.42 | 1.22 | 0.978 | 1.17 | 1.15 |  |  |  |  | 1.23 | 1.22 | 0.825 | 0.968
BEN | 0.84 | 0.44 | 0.659 | 0.819 | 0.656 | 0.768 | 0.72 | 0.76 | 0.612 | 0.749 | 0.0556 | 0.0502 | 0.07 | 0.0718 | 0.755 | 0.69 | 0.631 | 0.796
CAL-12T | 1.15 | 1.05 | 1.18 | 1.33 | 1.22 |  |  |  |  |  | 1.2 | 1.3 | 1.16 | 1.03 |  |  |  | 
COR-L23 | 1 | 0.958 | 0.925 | 0.991 | 0.927 | 0.326 | 0.473 | 0.431 | 0.487 | 0.413 | 1.18 | 1.09 | 0.998 | 1.19 | 0.496 | 0.446 | 0.433 | 0.445
COR-L 105 | 0.972 | 1.18 | 0.848 | 1.32 | 1.05 | 0.684 | 0.669 | 0.698 | 0.682 | 0.675 | 0.856 | 0.867 | 0.748 | 0.626 | 0.641 | 0.662 | 0.589 | 0.596
Calu-6 | 0.881 | 0.774 | 0.828 | 0.956 | 0.976 |  |  |  |  |  | 0.866 | 0.996 | 0.807 | 0.716 |  |  |  | 
ChaGo-K-1 | 0.952 | 0.942 | 0.922 | 0.894 | 0.84 | 0.56 | 0.489 | 0.533 | 0.513 | 0.556 | 1.11 | 0.845 | 0.97 | 1.1 | 0.541 | 0.52 | 0.562 | 0.522
EBC-1 | 0.102 | 0.104 | 0.0945 | 0.106 | 0.115 |  |  |  |  |  | 0.505 | 0.46 | 0.414 | 0.293 |  |  |  | 
EKVX | 1 | 0.71 | 0.802 | 0.796 | 0.757 | 0.377 | 0.318 | 0.392 | 0.319 | 0.38 | 0.996 | 0.953 | 0.929 | 0.433 | 0.312 | 0.351 | 0.381 | 0.153
EMC-BAC-2 | 1.05 | 0.997 | 1.03 | 1.11 | 1.07 | 1.07 |  | 0.957 | 1.11 | 0.963 | 1.14 | 1.12 | 1.18 | 1.05 | 1.03 | 0.981 | 0.941 | 0.965
EPLC-272H | 0.792 | 0.588 | 0.643 | 0.64 | 0.797 | 0.455 | 0.391 | 0.339 | 0.391 | 0.358 | 1.12 | 1.27 | 1.05 | 1.01 | 0.389 | 0.331 | 0.383 | 0.31
H3255 | 0.935 | 0.851 | 0.84 | 0.877 | 1.06 | 0.674 | 0.629 | 0.588 | 0.587 | 0.652 | 0.559 | 0.564 | 0.508 |  |  | 0.53 | 0.591 | 0.27
HARA | 0.956 | 0.979 | 0.84 | 0.912 | 0.911 | 0.67 | 0.543 | 0.447 | 0.586 | 0.569 | 1.14 | 1.13 | 1.12 | 1.14 | 0.457 | 0.61 | 0.469 | 0.543
HCC-15 | 1.08 | 1.07 | 0.989 | 1.01 | 0.853 | 0.625 | 0.621 | 0.603 | 0.689 | 0.65 | 0.728 | 0.628 | 0.684 | 0.698 | 0.715 | 0.636 | 0.538 | 0.755
HCC-44 |  |  |  |  |  | 0.933 | 0.925 | 0.944 | 0.972 | 0.845 | 0.971 | 0.935 | 1.06 | 0.872 | 0.988 | 0.987 | 0.971 | 1.09
HCC-78 | 0.584 | 0.59 |  | 0.545 | 0.525 | 0.673 | 0.634 | 0.734 | 0.838 | 0.652 | 0.853 | 0.683 | 0.8 | 0.3 | 0.707 | 0.694 | 0.667 | 0.702
HCC-366 | 0.918 | 0.954 | 0.956 | 0.942 | 0.938 | 0.33 | 0.325 | 0.329 | 0.374 | 0.334 | 0.951 | 1.14 | 1.03 | 1.07 | 0.349 | 0.289 | 0.324 | 0.301

From the supplement of paper PMC10307832
